From publication PMC8015227, “Understanding the Metabolism of Proteolysis Targeting Chimeras (PROTACs): The Next Step toward Pharmaceutical Applications” (Journal of Medicinal Chemistry, 2020)
Where two headings read alike, the source gives them in different places.

Assays:
[1] = Metabolic stability in cryopreserved human hepatocytes; type: in vitro ADME; conditions: human, cryopreserved human hepatocytes (pooled, suspension)
Protocol: (§1) Cryopreserved human hepatocytes (pooled suspension hepatocytes, Gibco) were thawed placing in a 37 °C shaking water bath according to the manufacturer’s specifications and resuspended in Williams E medium (WEM) to have 1 × 10^6 cells/mL. Samples with the test compound at 1 μM were incubated at 37 °C, and aliquots of 50 μL were collected at 0, 10, 30, 60, 120, and 240 min. The incubations were quenched 1:3 with ice-cold acetonitrile (containing 1 μM labetalol as the internal standard). Samples were then centrifuged at 12000 rpm for 5 min at 4 °C. The supernatant was concentrated by evaporation under a nitrogen stream and reconstituted with DMSO. Blank was prepared similarly but in the absence of the investigated compounds.
(§2) A Thermo Q-exactive mass spectrometer (Thermo Fisher Scientific, Waltham, MA) was used. The LC system, governed by Chromeleon X-press software, consists of a Binary pump, a thermostated autosampler, and a column compartment, all Dionex Ultimate 3000 series modules (Thermo Fisher Scientific, Waltham, MA). A volume of 2 μL was injected for each sample. Chromatographic separation of analytes was conducted in reverse-phase chromatography. In brief, a Luna Omega 1.6 μm Polar (C18, 2.1 mm × 150 mm) was used, and the mobile phases consisted of water (A) and acetonitrile (B), both containing formic acid at 0.1%. The LC flow was set at 0.400 mL/min in a 12 min gradient elution as follows: 99.5:0.5 (A/B) to 5:95 (A/B) over 10 min, 5:95 (A/B) for 2 min, and then reversion back to 99.5:0.5 (A/B) over 2.5 min. The column was operating at a constant temperature of 40 °C.

[2] = tested on: cryopreserved human hepatocytes; assay: as above; type: in vitro ADME; conditions: for HLH percentage of substrate left at the final time point of analysis: supplement CSV, in brackets, final time point 240 min
Protocol: as §1, §2

[3] = Table S1, PROTACs, cryopreserved human hepatocytes, read-out: t1/2
[4] = supplement CSV, human hepatocytes, read-out: HLH t1/2
[5] = Figures 3-5, cryopreserved human hepatocytes, read-out: half-life (t1/2)

SMILES: Cc1sc2c(c1C)C(c1ccc(Cl)cc1)=N[C@@H](CC(=O)NCCCCCCCCNc1cccc3c1C(=O)N(C1CCC(=O)NC1=O)C3=O)c1nnc(C)n1-2 (stereo partly drawn) [Compound 4, 2-((S)-4-(4-Chlorophenyl)-2,3,9-trimethyl-6H-thieno[3,2-f][1,2,4]triazolo[4,3-a][1,4]diazepin-6-yl)-N-(8-((2-(2,6-dioxopiperidin-3-yl)-1,3-dioxoisoindolin-4-yl)amino)octyl)acetamide]
- half-life at 1 µM ([1]; Table 1, incubation in cryopreserved human hepatocytes, 1 μM, up to 240 min, read-out: t1/2): 0.918 h
- half-life at 1 µM [1, 3]: 0.918 h
- half-life at 1 µM [1, 4]: 0.918 h
- Reaction (soft spots) ([2]; Table 1, biotransformations observed in cryopreserved human hepatocytes): a. N-dealkylation (x2) b. Aliphatic-hydroxylation c. Dehydrogenation*

SMILES: Cc1ncsc1-c1ccc([C@H](C)NC(=O)[C@@H]2C[C@@H](O)CN2C(=O)[C@@H](NC(=O)CCN2CCN(C(=O)C[C@@H]3N=C(c4ccc(Cl)cc4)c4c(sc(C)c4C)-n4c(C)nnc43)CC2)C(C)(C)C)cc1 [Compound 11, (2S,4R)-1-((S)-2-(3-(4-(2-((S)-4-(4-Chlorophenyl)-2,3,9-trimethyl-6H-thieno[3,2-f][1,2,4]triazolo[4,3-a][1,4]diazepin-6-yl)acetyl)piperazin-1-yl)propanamido)-3,3-dimethylbutanoyl)-4-hydroxy-N-((S)-1-(4-(4-methylthiazol-5-yl)phenyl)ethyl)pyrrolidine-2-carboxamide]
- half-life at 1 µM [1, 5]: > 4 h
- half-life at 1 µM [1, 3]: > 4 h
- half-life at 1 µM [1, 4]: > 4 h
- HLH percentage of substrate left at the final time point of analysis [2]: 70.0%

SMILES: O=C(COc1cccc2c1C(=O)N(C1CCC(=O)NC1=O)C2=O)NCCOCCOCCOCCNC(=O)c1ccc2c(c1)nc(Nc1cccc(Cl)c1)c1ccncc12 (centres unmarked) [Compound 14, 5-((3-Chlorophenyl)amino)-N-(1-((2-(2,6-dioxopiperidin-3-yl)-1,3-dioxoisoindolin-4-yl)oxy)-2-oxo-6,9,12-trioxa-3-azatetradecan-14-yl)benzo[c][2,6]naphthyridine-8-carboxamide]
- half-life at 1 µM [1, 3]: 1.28 h
- half-life at 1 µM [1, 4]: 1.28 h

SMILES: O=C1CCC(N2C(=O)c3cccc(NCCCCCCNC(=O)c4ccc5c(c4)nc(Nc4cccc(Cl)c4)c4ccncc45)c3C2=O)C(=O)N1 (centres unmarked) [Compound 16, 5-((3-Chlorophenyl)amino)-N-(6-((2-(2,6-dioxopiperidin-3-yl)-1,3-dioxoisoindolin-4-yl)amino)hexyl)benzo[c][2,6]naphthyridine-8-carboxamide]
- half-life at 1 µM [1, 3]: 0.578 h
- half-life at 1 µM [1, 4]: 0.578 h

SMILES: Cc1ncsc1-c1ccc([C@H](C)NC(=O)[C@@H]2C[C@@H](O)CN2C(=O)[C@@H](NC(=O)CCCCNC(=O)c2ccc3c(c2)nc(Nc2cccc(Cl)c2)c2ccncc23)C(C)(C)C)cc1 [Compound 17, 5-((3-Chlorophenyl)amino)-N-(5-(((S)-1-((2S,4R)-4-hydroxy-2-(((S)-1-(4-(4-methylthiazol-5-yl)phenyl)ethyl)carbamoyl)pyrrolidin-1-yl)-3,3-dimethyl-1-oxobutan-2-yl)amino)-5-oxopentyl)benzo[c][2,6]naphthyridine-8-carboxamide]
- half-life at 1 µM [1, 5]: 3.4 h
- half-life at 1 µM [1, 3]: 3.4 h
- half-life at 1 µM [1, 4]: 3.4 h

SMILES: Cc1ncsc1-c1ccc([C@H](C)NC(=O)[C@@H]2C[C@@H](O)CN2C(=O)[C@@H](NC(=O)CCCCCCNC(=O)c2ccc3c(c2)nc(Nc2cccc(Cl)c2)c2ccncc23)C(C)(C)C)cc1 [Compound 18, 5-((3-Chlorophenyl)amino)-N-(7-(((S)-1-((2S,4R)-4-hydroxy-2-(((S)-1-(4-(4-methylthiazol-5-yl)phenyl)ethyl)carbamoyl)pyrrolidin-1-yl)-3,3-dimethyl-1-oxobutan-2-yl)amino)-7-oxoheptyl)benzo[c][2,6]naphthyridine-8-carboxamide]
- half-life at 1 µM [1, 5]: 3.48 h
- half-life at 1 µM [1, 3]: 3.48 h
- half-life at 1 µM [1, 4]: 3.48 h

SMILES: Cc1ncsc1-c1ccc([C@H](C)NC(=O)[C@@H]2C[C@@H](O)CN2C(=O)[C@@H](NC(=O)COCCCNC(=O)c2ccc3c(c2)nc(Nc2cccc(Cl)c2)c2ccncc23)C(C)(C)C)cc1 [Compound 19, 5-((3-Chlorophenyl)amino)-N-(3-(2-(((S)-1-((2S,4R)-4-hydroxy-2-(((S)-1-(4-(4-methylthiazol-5-yl)phenyl)ethyl)carbamoyl)pyrrolidin-1-yl)-3,3-dimethyl-1-oxobutan-2-yl)amino)-2-oxoethoxy)propyl)benzo[c][2,6]naphthyridine-8-carboxamide]
- half-life at 1 µM [1, 3]: 2.65 h
- half-life at 1 µM [1, 4]: 2.65 h

SMILES: Cc1ncsc1-c1ccc([C@H](C)NC(=O)[C@@H]2C[C@@H](O)CN2C(=O)[C@@H](NC(=O)CN2CCN(C(=O)c3ccc4c(c3)nc(Nc3cccc(Cl)c3)c3ccncc34)CC2)C(C)(C)C)cc1 [Compound 20, (2S,4R)-1-((S)-2-(2-(4-(5-((3-Chlorophenyl)amino)benzo[c][2,6]naphthyridine-8-carbonyl)piperazin-1-yl)acetamido)-3,3-dimethylbutanoyl)-4-hydroxy-N-((S)-1-(4-(4-methylthiazol-5-yl)phenyl)ethyl)pyrrolidine-2-carboxamide]
- half-life at 1 µM [1, 5]: 3.63 h
- half-life at 1 µM [1, 3]: 3.63 h
- half-life at 1 µM [1, 4]: 3.63 h

SMILES: O=C1CCC(N2C(=O)c3cccc(NCCCCCCCCCCC(=O)N4CCN(C(=O)c5cc(Cc6n[nH]c(=O)c7ccccc67)ccc5F)CC4)c3C2=O)C(=O)N1 (centres unmarked) [Compound 21, 2-(2,6-Dioxopiperidin-3-yl)-4-((11-(4-(2-fluoro-5-((4-oxo-3,4-dihydrophthalazin-1-yl)methyl)benzoyl)piperazin-1-yl)-11-oxoundecyl)amino)isoindoline-1,3-dione]
- half-life at 1 µM [1, 3]: 0.262 h
- half-life at 1 µM [1, 4]: 0.262 h

SMILES: Cc1ncsc1-c1ccc([C@H](C)NC(=O)[C@@H]2C[C@@H](O)CN2C(=O)[C@@H](NC(=O)CCCCCCCCCCC(=O)N2CCN(C(=O)c3cc(Cc4n[nH]c(=O)c5ccccc45)ccc3F)CC2)C(C)(C)C)cc1 [Compound 22, (2S,4R)-1-((S)-2-(12-(4-(2-Fluoro-5-((4-oxo-3,4-dihydrophthalazin-1-yl)methyl)benzoyl)piperazin-1-yl)-12-oxododecanamido)-3,3-dimethylbutanoyl)-4-hydroxy-N-((S)-1-(4-(4-methylthiazol-5-yl)phenyl)ethyl)pyrrolidine-2-carboxamide]
- half-life at 1 µM [1, 3]: 1.58 h
- half-life at 1 µM [1, 4]: 1.58 h

SMILES: Cc1ncsc1-c1ccc([C@H](C)NC(=O)[C@@H]2C[C@@H](O)CN2C(=O)[C@@H](NC(=O)CCCCCCC(=O)N2CCN(C(=O)c3cc(Cc4n[nH]c(=O)c5ccccc45)ccc3F)CC2)C(C)(C)C)cc1 [Compound 23, (2S,4R)-1-((S)-2-(8-(4-(2-Fluoro-5-((4-oxo-3,4-dihydrophthalazin-1-yl)methyl)benzoyl)piperazin-1-yl)-8-oxooctanamido)-3,3-dimethylbutanoyl)-4-hydroxy-N-((S)-1-(4-(4-methylthiazol-5-yl)phenyl)ethyl)pyrrolidine-2-carboxamide]
- half-life at 1 µM [1, 3]: 1.52 h
- half-life at 1 µM [1, 4]: 1.52 h

SMILES: Cc1ncsc1-c1ccc([C@H](C)NC(=O)[C@@H]2C[C@@H](O)CN2C(=O)[C@@H](NC(=O)CCCCn2cc(CN3CCN(C(=O)c4cc(Cc5n[nH]c(=O)c6ccccc56)ccc4F)CC3)nn2)C(C)(C)C)cc1 [Compound 24, (2S,4R)-1-((S)-2-(5-(4-((4-(2-Fluoro-5-((4-oxo-3,4-dihydrophthalazin-1-yl)methyl)benzoyl)piperazin-1-yl)methyl)-1H-1,2,3-triazol-1-yl)pentanamido)-3,3-dimethylbutanoyl)-4-hydroxy-N-((S)-1-(4-(4-methylthiazol-5-yl)phenyl)ethyl)pyrrolidine-2-carboxamide]
- half-life at 1 µM [1, 5]: > 4 h
- half-life at 1 µM [1, 3]: > 4 h
- half-life at 1 µM [1, 4]: > 4 h
- substrate left ([2]; cryopreserved human hepatocytes, end of incubation (240 min)): about 84%
- HLH percentage of substrate left at the final time point of analysis [2]: 84.3%

SMILES: O=C(COc1cccc2c1C(=O)N(C1CCC(=O)NC1=O)C2=O)NCCOCCOCCOCCNC(=O)COc1c(-c2csc(N3CCOCC3)n2)ccc(F)c1F (centres unmarked) [Compound 28, 2-(2,3-Difluoro-6-(2-morpholinothiazol-4-yl)phenoxy)-N-(1-((2-(2,6-dioxopiperidin-3-yl)-1,3-dioxoisoindolin-4-yl)oxy)-2-oxo-6,9,12-trioxa-3-azatetradecan-14-yl)acetamide]
- half-life at 1 µM [1, 3]: 1.11 h
- half-life at 1 µM [1, 4]: 1.11 h

SMILES: O=C1CCC(N2C(=O)c3cccc(NCCOCCOCCOc4c(-c5csc(N6CCOCC6)n5)ccc(F)c4F)c3C2=O)C(=O)N1 (centres unmarked) [Compound 32, 4-((2-(2-(2-(2,3-Difluoro-6-(2-morpholinothiazol-4-yl)phenoxy)ethoxy)ethoxy)ethyl)amino)-2-(2,6-dioxopiperidin-3-yl)isoindoline-1,3-dione]
- half-life at 1 µM [1, 3]: 0.755 h
- half-life at 1 µM [1, 4]: 0.755 h

SMILES: Cc1ncsc1-c1ccc([C@H](C)NC(=O)[C@@H]2C[C@@H](O)CN2C(=O)[C@@H](NC(=O)COCCCNC(=O)COc2c(-c3csc(N4CCOCC4)n3)ccc(F)c2F)C(C)(C)C)cc1 [Compound 36]
- half-life at 1 µM [1, 3]: 0.42 h
- half-life at 1 µM [1, 4]: 0.42 h

SMILES: Cc1ncsc1-c1ccc([C@H](C)NC(=O)[C@@H]2C[C@@H](O)CN2C(=O)[C@@H](NC(=O)CCCCCCCOc2c(-c3csc(N4CCOCC4)n3)ccc(F)c2F)C(C)(C)C)cc1 [Compound 38]
- half-life at 1 µM [1, 3]: 1.13 h
- half-life at 1 µM [1, 4]: 1.13 h

SMILES: Cc1ncsc1-c1ccc([C@H](C)NC(=O)[C@@H]2C[C@@H](O)CN2C(=O)[C@@H](NC(=O)CCCCn2cc(COc3c(-c4csc(N5CCOCC5)n4)ccc(F)c3F)nn2)C(C)(C)C)cc1 [Compound 39]
- half-life at 1 µM [1, 5]: 0.668 h
- half-life at 1 µM [1, 3]: 0.668 h
- half-life at 1 µM [1, 4]: 0.668 h

SMILES: O=C(O)c1ccc2c(c1)nc(Nc1cccc(Cl)c1)c1ccncc12 [Compound 44, CX4945, reference compound]
- half-life at 1 µM ([1]; Table S2, free ligands, cryopreserved human hepatocytes, read-out: t1/2): 1.66 h
- half-life at 1 µM [1, 4]: 1.66 h
